Data as given in PubChem BioAssay (NCI).
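Briefly, cells in 96-well plates were exposed to five compound concentrations for 48 h, and endpoints were estimated by linear interpolation. TGI denotes the concentration required for complete inhibition of growth.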

Key:
Assay in all cases: inhibition of tumour cell growth, NCI panel, 48 h
HCT-15 colon = tested on: HCT-15 colon
IGROV1 ovarian = tested on: IGROV1 ovarian
UACC-257 melanoma = tested on: UACC-257 melanoma
LOX IMVI melanoma = tested on: LOX IMVI melanoma
MOLT-4 leukemia = tested on: MOLT-4 leukemia
SF-295 CNS = tested on: SF-295 CNS
HCC-2998 colon = tested on: HCC-2998 colon
U251 CNS = tested on: U251 CNS
CAKI-1 renal = tested on: CAKI-1 renal
SR leukemia = tested on: SR leukemia
HT29 colon = tested on: HT29 colon
SK-OV-3 ovarian = tested on: SK-OV-3 ovarian
786-0 renal = tested on: 786-0 renal
SF-539 CNS = tested on: SF-539 CNS
SNB-75 CNS = tested on: SNB-75 CNS
A498 renal = tested on: A498 renal
ACHN renal = tested on: ACHN renal
SK-MEL-28 melanoma = tested on: SK-MEL-28 melanoma
COLO 205 colon = tested on: COLO 205 colon
MDA-MB-435 = tested on: MDA-MB-435
DU-145 prostate = tested on: DU-145 prostate
UO-31 renal = tested on: UO-31 renal
UACC-62 melanoma = tested on: UACC-62 melanoma
HOP-92 NSCLC = tested on: HOP-92 NSCLC
A549 NSCLC = tested on: A549 NSCLC
SK-MEL-5 melanoma = tested on: SK-MEL-5 melanoma
MCF7 breast = tested on: MCF7 breast
RXF 393 renal = tested on: RXF 393 renal
MALME-3M melanoma = tested on: MALME-3M melanoma
NCI-H522 lung = tested on: NCI-H522 lung
HS 578T breast = tested on: HS 578T breast
BT-549 breast = tested on: BT-549 breast
NCI-H460 lung = tested on: NCI-H460 lung
HCT-116 colon = tested on: HCT-116 colon
MDA-N = tested on: MDA-N
SNB-19 CNS = tested on: SNB-19 CNS
SK-MEL-2 melanoma = tested on: SK-MEL-2 melanoma
OVCAR-8 ovarian = tested on: OVCAR-8 ovarian
TK-10 renal = tested on: TK-10 renal
NCI/ADR-RES ovarian = tested on: NCI/ADR-RES ovarian
OVCAR-5 ovarian = tested on: OVCAR-5 ovarian
OVCAR-3 ovarian = tested on: OVCAR-3 ovarian
MDA-MB-231 breast = tested on: MDA-MB-231 breast
RPMI-8226 leukemia = tested on: RPMI-8226 leukemia
EKVX NSCLC = tested on: EKVX NSCLC
SW-620 colon = tested on: SW-620 colon
T-47D breast = tested on: T-47D breast
NCI-H23 lung = tested on: NCI-H23 lung
K-562 leukemia = tested on: K-562 leukemia
PC-3 prostate = tested on: PC-3 prostate
SN12C renal = tested on: SN12C renal
M14 melanoma = tested on: M14 melanoma
OVCAR-4 ovarian = tested on: OVCAR-4 ovarian
HOP-62 NSCLC = tested on: HOP-62 NSCLC
NCI-H226 lung = tested on: NCI-H226 lung
SF-268 CNS = tested on: SF-268 CNS
CCRF-CEM leukemia = tested on: CCRF-CEM leukemia
KM12 colon = tested on: KM12 colon
HL-60(TB) leukemia = tested on: HL-60(TB) leukemia

Measured: TGI

O=c1c2ccc(Cl)cc2oc2c(CSc3ccccc3)cccc12
> 87.6 µM: NCI-H23 lung
81.3 µM: RPMI-8226 leukemia
> 74.9 µM: HOP-92 NSCLC
> 65.3 µM: KM12 colon
> 31.6 µM: SW-620 colon
> 74.5 µM: SNB-75 CNS
> 53.1 µM: NCI-H522 lung
> 78.7 µM: BT-549 breast
> 79.7 µM: CAKI-1 renal
> 92.1 µM: SK-MEL-5 melanoma
> 61.1 µM: MALME-3M melanoma
> 91.9 µM: LOX IMVI melanoma
> 52 µM: IGROV1 ovarian
> 79.1 µM: A498 renal
> 65.1 µM: ACHN renal
> 38.4 µM: UO-31 renal
> 68.3 µM: MDA-MB-435
> 86.5 µM: SNB-19 CNS
> 83.3 µM: UACC-62 melanoma
> 60.7 µM: SF-539 CNS
90.4 µM: NCI-H460 lung
not listed: HL-60(TB) leukemia
> 100 µM: all other assays above

COc1ccc(C2C(=O)c3ccc(OC)cc3OC2c2cccnc2)cc1 (configuration not stated)
97.1 µM: HOP-92 NSCLC
> 100 µM: all other assays above
